The values that follow come from ChEMBL document CHEMBL1155095, “Synthesis and cytotoxicity of aurilide analogs” (Bioorg Med Chem Lett, 2008).

In brackets after ≈: the same amount, converted by molar mass.

Broadly, the IC50 is the midpoint of a concentration-inhibition curve. A higher IC50 goes with weaker potency.

For the experiment, the system named is HeLa. Put plainly: Cytotoxicity against human HeLa S3 cells. In kind it is functional, cell-based.
`CC/C=C(\C)[C@H]1OC(=O)[C@H](C)N(C)C(=O)[C@@H](C(C)C)NC(=O)CN(C)C(=O)[C@@H](CC(C)C)N(C)C(=O)[C@H](C(C)C)NC(=O)[C@@H]([C@@H](C)CC)OC(=O)/C(C)=C/C[C@H](O)[C@@H]1C` displayed an IC50 of more than 4 µg/mL.
Next, `CC/C=C(\C)[C@H]1OC(=O)[C@H](CCCCNC(=O)OC(C)(C)C)N(C)C(=O)[C@H](C(C)C)NC(=O)CN(C)C(=O)[C@@H](CC(C)C)N(C)C(=O)[C@H](C(C)C)NC(=O)[C@@H]([C@@H](C)CC)OC(=O)/C(C)=C/C[C@H](O)[C@@H]1C`: 0.02 µg/mL (≈ 0.0202 µM); `CC/C=C(\C)[C@H]1OC(=O)[C@H](C)N(C)C(=O)[C@H](C(C)C)NC(=O)CN(C)C(=O)[C@@H](CC(C)C)N(C)C(=O)[C@H](CCCCNC(=O)OC(C)(C)C)NC(=O)[C@@H]([C@@H](C)CC)OC(=O)/C(C)=C/C[C@H](O)[C@@H]1C`: 0.032 µg/mL (≈ 0.0332 µM); `CC/C=C(\C)[C@H]1OC(=O)[C@H](C)N(C)C(=O)[C@H](CCCCNC(=O)OC(C)(C)C)NC(=O)CN(C)C(=O)[C@@H](CC(C)C)N(C)C(=O)[C@H](C(C)C)NC(=O)[C@@H]([C@@H](C)CC)OC(=O)/C(C)=C/C[C@H](O)[C@@H]1C`: 0.26 µg/mL (≈ 0.27 µM).
Compound `CC/C=C(\C)[C@H]1OC(=O)[C@H](C)N(C)C(=O)[C@H](C(C)C)NC(=O)CN(C)C(=O)[C@@H](CC(C)C)N(C)C(=O)[C@H](C(C)C)NC(=O)[C@@H]([C@@H](C)CC)OC(=O)/C(C)=C/C[C@H](O)[C@@H]1C` [AURILIDE] displayed an IC50 of 0.0024 µg/mL (≈ 0.00288 µM).
Next, `CC/C=C(\C)[C@H]1OC(=O)[C@H](C)N(C)C(=O)[C@@H](C(C)C)NC(=O)CN(C)C(=O)[C@@H](CC(C)C)N(C)C(=O)[C@H](C(C)C)NC(=O)[C@@H]([C@@H](C)CC)OC(=O)/C(C)=C/C[C@H](OC(=O)CCCCCNC(=O)CCC(=O)O)[C@@H]1C`: more than 10 µg/mL; `CC/C=C(\C)[C@H]1OC(=O)[C@H](C)N(C)C(=O)[C@H](C(C)C)NC(=O)CN(C)C(=O)[C@@H](CC(C)C)N(C)C(=O)[C@H](C(C)C)NC(=O)[C@@H]([C@@H](C)CC)OC(=O)/C(C)=C/CC[C@@H]1C` [DEOXYAURILIDE]: 0.017 µg/mL (≈ 0.0208 µM).
Next, `CC/C=C(\C)[C@H]1OC(=O)[C@H](C)N(C)C(=O)[C@H](C(C)C)NC(=O)CN(C)C(=O)[C@@H](CC(C)C)N(C)C(=O)[C@H](C(C)C)NC(=O)[C@@H]([C@@H](C)CC)OC(=O)/C(C)=C/C[C@H](OC(=O)CCCCCNC(=O)CCC(=O)O)[C@@H]1C`: 0.14 µg/mL (≈ 0.134 µM).
The compound `CC/C=C(\C)[C@H]1OC(=O)[C@H](C)N(C)C(=O)[C@H](C(C)C)NC(=O)CN(C)C(=O)[C@@H](CC(C)C)N(C)C(=O)[C@H](C(C)C)NC(=O)[C@@H]([C@@H](C)CC)OC(=O)/C(C)=C/C[C@H](OC(=O)CCCCCNC(=O)OCC2c3ccccc3-c3ccccc32)[C@@H]1C` had an IC50 of 0.42 µg/mL (≈ 0.359 µM).
